{
  "source": "paper PMC8025548",
  "about": "(Carbohydrate Polymers, 2021)",
  "key": {"[1]": {"conditions": "ref Larson, 2019, cited from earlier work"}, "[2]": {"test": "SBECD-assisted equilibrium solubilization of REM, assayed by HPLC", "format": "physicochemical", "conditions": "for solubility at 24 h: pH 1.9"}},
  "note": "Read-outs that look alike come from different tables or passages of the source.",
  "data": [
    {"compound": "CCC(CC)COC(=O)[C@H](C)N[P@](=O)(OC[C@H]1O[C@@](C#N)(c2ccc3c(N)ncnn23)[C@H](O)[C@@H]1O)Oc1ccccc1", "note": "[REM, Remdesivir]", "values": [
      {"measurement": "dissolved REM", "setting": "[1]; 20 % (w/w) aqueous solution of PEG-400", "result": 3.3, "unit": "mg/mL"},
      {"measurement": "dissolved REM", "setting": "[1]; 20 % (w/w) aqueous solution of SBECD", "result": 8.5, "unit": "mg/mL"},
      {"measurement": "dissolved REM", "setting": "[1]; 20 % (w/w) aqueous solution of Tween-80", "result": 3.9, "unit": "mg/mL"},
      {"measurement": "solubility at 24 h", "setting": "[2]; 20 % (w/w) aqueous SBECD solution", "result": "7600 to 9700", "unit": "µg/mL"},
      {"measurement": "solubility at 24 h", "setting": "[2]; 20 % aqueous SBECD solution", "result": 8400, "unit": "µg/mL"},
      {"measurement": "improvement of the aqueous solubility of REM", "setting": "[2]; with solubilizing carbohydrate (SBECD)", "result": 300, "unit": "fold"}
    ]}
  ]
}
